Data: patent US20100004128A1, “HERBICIDAL ISOXAZOLINE COMPOUNDS” (SYNGENTA CROP PROTECTION, INC., priority 2006, published 2010)

How the values were obtained:
[1] = test system: Monocotyledonous and dicotyledonous test plants; assay: Herbicidal action, application pre-emergence; type: in vivo; parameters: key: 10=total damage to plant; 0=no damage to plant; conditions: spray solution 1000 mg/l, scale 0-10; for Herbicidal action (damage score) AGSTE: Agrostis tenius; for Herbicidal action (damage score) AMARE: Amaranthus retroflexus; for Herbicidal action (damage score) DIGSA: Digitaria sanguinalis; for Herbicidal action (damage score) POATR: Poa trivialis; for Herbicidal action (damage score) SETIT: Setaria italica; for Herbicidal action (damage score) SETFA: Setaria faberi
Experimental: Monocotyledonous and dicotyledonous test plants were sown in sterilised standard soil in seed trays each having 96 cells. After one day (pre-emergence) or after 8 to 9 days cultivation (post-emergence) under controlled conditions in a climatic chamber (cultivation at 23/17° C., day/night; 13 hours light; 50-60% humidity; after application at 24/19° C., day/night), the plants were treated with an aqueous spray solution of 1000 mg/l of the active ingredient used (incl. 10% DMSO as solvent). The plants were grown on in the climatic chamber until the test was evaluated (10=total damage to plant, 0=no damage to plant) after 9 or 13 days.

| melting point [°C] | SMILES | Herbicidal action (damage score) AGSTE [1] | Herbicidal action (damage score) AMARE [1] | Herbicidal action (damage score) DIGSA [1] | Herbicidal action (damage score) POATR [1] | Herbicidal action (damage score) SETIT [1] | Herbicidal action (damage score) SETFA [1] |
| --- | --- | --- | --- | --- | --- | --- | --- |
| 54 | Cn1nc(CF)c(C(F)(F)S(=O)(=O)C2=NOC(C)(C)C2)n1 [Compound No. 1.01, 4-[(5,5-dimethyl-4,5-dihydro-isoxazole-3-sulfonyl)-difluoro-methyl]-5-fluoromethyl-2-methyl-2H-[1,2,3]triazole] | 10 | 10 | 10 | 10 | 10 |  |
|  | Cc1nn(C(C)C)nc1C(F)(F)S(=O)(=O)C1=NOC(C)(C)C1 [1.41] | 10 | 10 | 10 | 10 |  | 9 |
|  | C=CCn1nc(C(F)(F)F)c(C(F)(F)[S+]([O-])C2=NOC(C)(C)C2)n1 (racemic) [1.34] | 10 | 9 | 10 | 10 |  | 10 |
|  | Cn1nnc(Br)c1C(F)(F)[S+]([O-])C1=NOC(C)(C)C1 (centres unmarked) [3.06] | 10 | 10 | 9 | 10 |  | 9 |
|  | CC1(C)CC([S+]([O-])C(F)c2cn(C(C)(C)C)nn2)=NO1 (mixture of isomers) [Compound No. 2.03] | 8 | 2 | 9 | 4 |  | 5 |
|  | CC(C)n1nc(C(F)(F)F)c(C(F)(F)[S+]([O-])C2=NOC(C)(C)C2)n1 (racemic) [1.18] | 10 | 10 | 10 | 10 |  | 9 |
| 80 | Cn1nc(CF)c(C(F)(Cl)S(=O)(=O)C2=NOC(C)(C)C2)n1 (centres unmarked) [Compound No. 1.03, 4-[chloro-(5,5-dimethyl-4,5-dihydro-isoxazole-3-sulfonyl)-fluoro-methyl]-5-fluoromethyl-2-methyl-2H-[1,2,3]triazole] | 10 | 8 | 10 | 10 | 9 |  |
|  | Cn1nc(Br)c(C(F)S(=O)(=O)C2=NOC(C)(C)C2)n1 (centres unmarked) [1.45] | 10 | 9 | 10 | 10 |  | 9 |
|  | CC1(C)CC(S(=O)(=O)C(F)(F)c2nn(C3CCCC3)nc2C(F)(F)F)=NO1 [1.29] | 10 | 8 | 9 | 6 |  | 9 |
|  | Cn1nnc(C(F)(F)F)c1C(F)(F)S(=O)(=O)C1=NOC(C)(C)C1 [3.02] | 10 | 10 | 10 | 10 | 10 |  |
|  | CC1(C)CC(S(=O)(=O)C(F)c2nn(C3CCCC3)nc2C(F)(F)F)=NO1 (racemic) [1.28] | 10 | 9 | 9 | 10 |  | 8 |
|  | Cc1nn(C(F)F)nc1C(F)(F)S(=O)(=O)C1=NOC(C)(C)C1 [1.20] | 10 | 10 | 10 | 10 |  | 9 |
|  | CCn1nc(C(F)(F)F)c(C(F)(F)S(=O)(=O)C2=NOC(C)(C)C2)n1 [1.15] | 10 | 10 | 10 | 10 |  | 10 |
|  | Cn1nc(Br)c(C(F)(F)[S+]([O-])C2=NOC(C)(C)C2)n1 (centres unmarked) [1.47] | 10 | 10 | 9 | 10 |  | 9 |
|  | Cc1nn(C)nc1C(F)(F)[S+]([O-])C1=NOC(C)(C)C1 (centres unmarked) [Compound No. 1.08, 4-[(5,5-dimethyl-4,5-dihydro-isoxazole-3-sulfinyl)-difluoro-methyl]-2,5-dimethyl-2H-1,2,31-triazole] | 10 | 10 | 10 | 10 |  | 9 |
|  | COCCn1nc(C(F)(F)F)c(C(F)(F)[S+]([O-])C2=NOC(C)(C)C2)n1 (racemic) [1.25] | 10 | 10 | 10 | 10 |  | 9 |
|  | CC1(C)CC(S(=O)(=O)C(F)c2cn(C(C)(C)C)nn2)=NO1 (centres unmarked) [Compound No. 2.01] | 10 | 3 | 9 | 0 |  | 9 |
|  | Cn1nc(C(F)(F)F)c(C(F)(Cl)S(=O)(=O)C2=NOC(C)(C)C2)n1 (racemic) [1.10] | 10 | 10 | 10 | 10 | 10 |  |
|  | CCn1ncc(C(F)[S+]([O-])C2=NOC(C)(C)C2)n1 (mixture of isomers) [1.39] | 10 | 9 | 9 | 10 |  | 9 |
|  | Cn1nc(Br)c(C(F)(F)S(=O)(=O)C2=NOC(C)(C)C2)n1 [1.46] | 10 | 10 | 10 | 10 |  | 9 |
|  | Cn1nc(C(F)S(=O)(=O)C2=NOC(C)(C)C2)c(C(F)(F)F)n1 (racemic) [Compound No. 1.11] | 10 | 10 | 10 | 10 | 10 |  |
|  | CCn1ncc(C(F)(F)S(=O)(=O)C2=NOC(C)(C)C2)n1 [1.38] | 10 | 10 | 9 | 10 |  | 9 |
|  | CC(C)n1nc(C(F)(F)F)c(C(F)(F)S(=O)(=O)C2=NOC(C)(C)C2)n1 [1.17] | 10 | 10 | 9 | 10 |  | 10 |
|  | CCc1nn(C)nc1C(F)(F)[S+]([O-])C1=NOC(C)(C)C1 (racemic) [1.27] | 10 | 10 | 10 | 10 |  | 9 |
|  | CC1(C)CC([S+]([O-])C(F)c2nn(C3CCCC3)nc2C(F)(F)F)=NO1 (mixture of isomers) [1.30] | 10 | 10 | 9 | 10 |  | 8 |
|  | Cn1nnc(Br)c1C(F)[S+]([O-])C1=NOC(C)(C)C1 (mixture of isomers) [Compound No. 3.05] | 10 | 8 | 10 | 10 |  | 9 |
|  | CCc1nn(C)nc1C(F)(F)S(=O)(=O)C1=NOC(C)(C)C1 [1.26] | 10 | 10 | 10 | 10 |  | 10 |
|  | CC1(C)CC([S+]([O-])C(F)(F)c2nn(C3CCCC3)nc2C(F)(F)F)=NO1 (racemic) [1.31] | 10 | 0 | 9 | 7 |  | 9 |
|  | CCn1ncc(C(F)(F)[S+]([O-])C2=NOC(C)(C)C2)n1 (centres unmarked) [1.40] | 10 | 10 | 9 | 10 |  | 9 |
|  | COCCn1nc(C(F)(F)F)c(C(F)(F)S(=O)(=O)C2=NOC(C)(C)C2)n1 [1.23] | 10 | 10 | 10 | 10 |  | 10 |
